Entries after “also recorded” stand apart in the source; their conditions may differ.
What was measured:
[1] = target: L-DOPA 2,3-dioxygenase from S. hygroscopicus jingganensis (ShjDDO) (Streptomyces hygroscopicus, UniProt H2JL11); assay: UV-visible steady-state assay of L-DOPA 2,3-dioxygenase (ShjDDO); format: biochemical; conditions: for activity / turnover as substrate: ShjDDO, aerobic reaction observed by UV–visible spectroscopy; for kSP, O2 (μM^-1 min^-1) at pH 7.5 relative to L-DOPA x 100 for ShjDDO: percentage of the value for L-DOPA
L-DOPA 2,3-dioxygenase from S. hygroscopicus jingganensis (ShjDDO), sequence (H2JL11 1-162): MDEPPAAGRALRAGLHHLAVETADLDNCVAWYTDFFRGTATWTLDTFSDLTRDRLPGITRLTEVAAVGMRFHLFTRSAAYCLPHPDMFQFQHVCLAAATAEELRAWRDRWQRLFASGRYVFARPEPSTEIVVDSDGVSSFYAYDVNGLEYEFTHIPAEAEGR
Experimental: (§1) Purified, reconstituted L-DOPA 2,3-dioxygenases were assessed for activity by monitoring the cleavage of catecholic substrates using UV–visible spectroscopy. 3,4-Dihydroxyhydrocinnamic acid (DHHCA, 3) was purchased from Sigma-Aldrich. 6-CyanoDHHCA (5) and 6-bromoDHHCA (4) were synthesized as described above.
(§2) Molecular oxygen (AirGas) was bubbled directly into the reaction buffer through a glass-bonded silica gas diffuser (Bubblemac Industries, Inc.) or as a gas mixture blended with air (AirGas). Solutions were bubbled with oxygen for several minutes prior to use and for the duration of the experiment. To determine the K M for oxygen (i.e., K MO2), L-DOPA 2,3-dioxygenases (0.25–4.0 μM) were reacted with a saturating concentration of the catecholic substrate DHHCA/6-X-DHHCA derivatives (2–10× the K M sufficient to achieve k cat) and various oxygen concentrations (21–100% or 270–1300 μM at 22 °C). The concentration of oxygen was varied by changing the percentage of oxygen in the blend using a galvanic oxygen sensor and oxygen monitor (AirGas) and then bubbling solutions, as described above. Molecular oxygen percentages were converted to molar concentrations using a reference temperature of 22 °C. The reaction of L-DOPA 2,3-dioxygenases with DHHCA/6-X-DHHCA derivatives as a function of oxygen concentration was followed by the appearance of the steady-state cleavage product by using UV–visible spectroscopy.
(§3) The extinction coefficients for steady-state cleavage products of DHHCA and synthetic 6-X-DHHCA derivatives were determined by reacting various concentrations of DHHCA/6-X-DHHCA derivatives at 22 °C with a 10-fold stoichiometric excess of enzyme (quantified by Fe^II–see Reconstitution) in 50 mM HEPES buffer with 154 mM NaCl at pH 7.5, bubbled with 100% oxygen to a final concentration of 780–910 μM, depending on the volume of oxygenated buffer that comprised the reaction (60–70%). Substrate solutions were prepared from authentic synthetic standards using an analytical balance, and reactions were run to completion as assessed by the appearance of the steady-state product. The λmax and extinction coefficients of DHHCA, 6-cyanoDHHCA, and 6-bromoDHHCA were determined herein as ε380 = 40 740 ± 820 M^–1cm^–1, ε385 = 33 256 ± 484 M^–1cm^–1, and ε380 = 35 282 ± 1190 M^–1cm^–1, respectively (Figure S52).
(§4) Steady-state kinetic data were obtained through a UV–visible spectroscopic assay. Initial rates were obtained from the slopes of the linear regions of the progress curves and plotted versus substrate concentration to yield a hyperbola, which was analyzed using the Michaelis–Menten expression and nonlinear least-squares fitting (NLSF) with Origin 6.0 (Microcal). Two possible derivations of the Michaelis–Menten expression were used: 1) the traditional expression y = k cat × x/(K M + x), where y is Rate/E 0 or the rate of product formation (μM/min) divided by the starting enzyme concentration (μM), x is substrate concentration (μM) and k SP (also known as k cat × K M ^–1)–that is, the second-order rate constant of enzyme and substrate–is extracted from the fitted constants; or 2) the alternative derivation that extracts k SP and k cat directly from the fit: y = (k SP × x)/((1 + k SP × x)/k cat), and where y is Rate/E 0 or the rate of product formation (μM/min) divided by the starting enzyme concentration (μM), x is substrate concentration (μM), k SP is equivalent to k cat×K M ^–1, and K M is extracted from k cat/k cat×K M ^–1.

[2] = Determination of pKa values by spectrophotometric titration; conditions: for pK a value: first catecholic deprotonation, determined spectroscopically from pH 3 to 12.5; for Catecholic pKa value relative to L-DOPA x 100: percentage of the value for L-DOPA
Experimental: A buffer system utilizing five different buffers was prepared to cover the pH range of 3.0 to 12.50. A Thermo Scientific Orion Star A211 pH meter was used to measure and determine the pH of each buffer. The pH meter was calibrated using three- and four-point calibration with pH values of 4.00, 7.01, and 10.01 and 4.00, 7.01, 10.01, and 12.00, respectively.
The buffer systems were prepared as previously described and included: NaOAc/HOAc buffers (C = 0.1 M; I = 0.1 M) were used to cover the pH range of 3.0 to 5.50. KH2PO4/K2HPO4 buffers (C = 0.05 M; I = 0.1 M) were used to cover the pH range of 6.00 to 8.00. CHES buffers (C = 0.05 M; I = 0.1 M) were used to cover the pH range of 8.50 to 10.50. Na2HPO4/Na3PO4 buffers (C = 0.05 M; I = 0.1 M) were used to cover the pH range of 11.00 to 12.00. KCl buffers (C = 0.1 M; I = 0.1 M) were used to cover the pH range of 12.00 to 12.50.
The absorbance spectra of the compounds were determined at each pH as previously described. Briefly, a stock solution was prepared for each compound by weighing 2 mg of the compound using a high-precision analytical balance. Each compound was then dissolved in DMSO at a concentration of 10 mM. A UV-transparent 96-well microplate (Corning clear acrylic 96-well UV plate with a UV-transparent flat bottom) was loaded with 196 μL of buffer solution and 4 μL of the catechol stock in each well to get a final concentration of 200 μM. DMSO (4 μL) was added to 196 μL of the appropriate buffer to produce a blank solution for each buffer.
The 96-well plate was loaded into the microplate reader and incubated at 30 °C and shaken for 10 min before the reading. Absorbance readings were completed by using a Synergy HTX 15032517 microplate reader. Each well was read at wavelengths from 210 to 600 nm with 2-nm increments for each scan over a duration of 60 min.
The data were analyzed as previously described. Raw UV-spectra scans were exported to the Excel program. They were first processed by subtracting the reading of the blank solutions from the reading of each compound at the corresponding wavelengths. […] Finally, the spectral difference between the pH 3.0 buffer and the spectra at all other pH values was plotted. Additionally, the spectral difference between the pH 4.0 buffer and the spectra at all other higher pH values was plotted. The wavelengths for the maximum positive and negative absorbance were determined by using the graphs of the spectral difference plots, both for the pH 3.0 and pH 4.0 spectral difference plots. The absolute maximum positive and total absorbance differences at these chosen wavelengths were plotted against the pH of each buffer. The data were imported into the Origin 6.0 program, and the pK a values were determined with a nonlinear regression using eq : 1 Absorbancetotal=εHA−εA−[10^(pH−pKa)]/1+10^(pH−pKa)×[St]
εHA is the extinction coefficients of the acid form of the compound, and εA ^– is the extinction coefficient of the base form of the compound (i.e., the minima and maxima of the absorbance difference curve, respectively), and [S t] is the total compound concentration.

[3] = target: L-DOPA 2,3-dioxygenase from S. lincolnensis (LmbB1) (Streptomyces lincolnensis, UniProt Q54354); assay: UV-visible steady-state assay of L-DOPA 2,3-dioxygenase (LmbB1); format: biochemical; conditions: for activity / turnover as substrate: aerobic reaction observed by UV–visible spectroscopy; for kSP, O2 (μM^-1 min^-1) at pH 7.5 relative to L-DOPA x 100 for LmbB1: percentage of the value for L-DOPA
L-DOPA 2,3-dioxygenase from S. lincolnensis (LmbB1), sequence (Q54354 entry or part of it): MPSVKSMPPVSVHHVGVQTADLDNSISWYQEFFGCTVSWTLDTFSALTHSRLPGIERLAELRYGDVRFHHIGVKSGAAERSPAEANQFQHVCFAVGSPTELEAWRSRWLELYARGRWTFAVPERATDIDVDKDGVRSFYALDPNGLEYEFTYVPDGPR
Experimental: as §1, §2, §3, §4

[4] = Cyclic voltammetry (redox potentials on a GCE); format: physicochemical; conditions: for (E p)a Oxidation / (E p)c Reduction / E1/2 / Ipa/Ipc / ΔE p: GCE (d = 2 mm); for E1/2 (mV) at pH 7.4 relative to L-DOPA x 100: percentage of the value for L-DOPA
Text: Reduction and oxidation potentials were experimentally performed by cyclic voltammetry (CV) at biological pH 7.4, as previously described. All samples were run on a CH Instruments 600E Potentiostat in a one-compartment cell equipped with a three-electrode system arrangement. The three-electrode system included a saturated calomel electrode as the reference electrode, a platinum wire as the auxiliary electrode, and a glassy carbon electrode (GCE, d = 2 mm) as the working electrode. The GCE was polished between each sample scan with an aqueous slurry of alumina powder on a microcloth pad. The electrodes were rinsed with distilled water prior to the next scan. All scans were conducted under nitrogen for oxygen displacement and at room temperature (rt, 25 ± 1 °C). All samples were prepared as close to the scan as possible (approximately 2 min each). Each sample (5 mL) contained 0.1 mM catecholic substrate and 1 μM DMSO in 0.1 M phosphate buffer at a pH of 7.4 or 6.0. […] The cyclic voltammograms for the compounds at both pH 6.0 and 7.4 are available in Figures S40–S51.

[5] = design: method as in Biochemistry 2021, 60, 32, 2492–2507; conditions: similarly 6-substituted dopamine; ref Biochemistry 2021, 60, 32, 2492–2507; cited from earlier work
[6] = ShjDDO active site, ratio to DHHCA
[7] = LmbB1 active site, ratio to DHHCA

## O=C(O)CCc1cc(O)c(O)cc1Br [6-BromoDHHCA (4), 3-(2-bromo-4,5-dihydroxyphenyl) propanoic acid]
[1]; S. hygroscopicus jingganensis enzyme, pH 7.5
  kcat at 22 °C and 100% O2 saturation: 1.5 ± 0.1 sec^–1
[1]; S. hygroscopicus jingganensis enzyme, values are kSP × 10^2
  kSP,O2 × 10^2 at 22 °C: 15.8 ± 1.0 μM^–1 min^–1
[1]; S. hygroscopicus jingganensis enzyme, values are kSP × 10^2, kSP = kcat/KM
  kSP catechol × 10^2 at 22 °C: 9.8 ± 1.9 μM^–1 min^–1
[1]; ShjDDO active site
  k SP,O2 compared with DHHCA: equivalent to DHHCA (3) within error
[1]; [6]
  K M weaker than DHHCA: 2 fold
  k cat faster than DHHCA: 2 fold
[1]
  activity / turnover as substrate: measurable activity
  kSP, O2 (μM^-1 min^-1) at pH 7.5 relative to L-DOPA x 100 for ShjDDO: ~11%
[2]
  pK a value: 8.36 ± 0.07
  Catecholic pKa value relative to L-DOPA x 100: 95%
[3]; LmbB1
  activity / turnover as substrate: measurable activity
[3]; LmbB1, ratio to DHHCA
  K M tighter than DHHCA: 4.5 fold
[3]; [7]
  k SP,O2 slower than DHHCA: more than 5 fold
  k cat slower than DHHCA: more than 10 fold
[3]; S. lincolnensis enzyme, pH 7.5
  kcat at 22 °C and 100% O2 saturation: 1.6 × 10^–1 ± 4.6 × 10 ^–3 sec^–1
[3]; S. lincolnensis enzyme, values are kSP × 10^2
  kSP,O2 × 10^2 at 22 °C: 3.5 ± 0.5 μM^–1 min^–1
[3]; S. lincolnensis enzyme, values are kSP × 10^2, kSP = kcat/KM
  kSP catechol × 10^2 at 22 °C: 4.6 ± 0.5 μM^–1 min^–1
[3]
  kSP, O2 (μM^-1 min^-1) at pH 7.5 relative to L-DOPA x 100 for LmbB1: 4%
[4]; pH 6.0
  (E p)a Oxidation: 267 mV
  (E p)c Reduction: 154 mV
  E1/2: 210.5 mV
  Ipa/Ipc: 1.43
  ΔE p: 113 mV
[4]; pH 7.4
  (E p)a Oxidation: 195 mV
  (E p)c Reduction: 59 mV
  E1/2: 127 mV
  Ipa/Ipc: 1.21
  ΔE p: 136 mV
[4]
  E1/2 (mV) at pH 7.4 relative to L-DOPA x 100: 63%

## O=C(O)CCc1cc(O)c(O)cc1[N+](=O)[O-] [6-NitroDHHCA (6), 3-(4,5-dihydroxy-2-nitrophenyl) propanoic acid]
[1]
  activity / turnover as substrate: no turnover was detected; also recorded: did not undergo turnover
[2]
  pK a value: 6.94 ± 0.06
[3]; LmbB1
  activity / turnover as substrate: no turnover was detected; also recorded: did not undergo turnover
[4]; pH 6.0
  (E p)a Oxidation: 444 mV
[4]; pH 7.4
  (E p)a Oxidation: 288 mV

## NCCc1cc(O)c(O)cc1Br [Compound 6-bromoDA, 6-bromodopamine, reference compound]
[5]
  pK a value of dopamine counterpart: 8.09 ± 0.03
[1]
  kSP, O2 (μM^-1 min^-1) at pH 7.5 relative to L-DOPA x 100 for ShjDDO: 9%
[2]
  Catecholic pKa value relative to L-DOPA x 100: 92%
[3]
  kSP, O2 (μM^-1 min^-1) at pH 7.5 relative to L-DOPA x 100 for LmbB1: 27%
[4]
  E1/2 (mV) at pH 7.4 relative to L-DOPA x 100: 77%
